Measured values taken from PubChem BioAssay (NCI).
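48-hour exposure; five concentrations; linearly interpolated endpoints. TGI marks complete inhibition of growth.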

Assays:
Experiment in all cases: NCI-60 cell line screen, 48 h
786-0 renal = tested on: 786-0 renal
A498 renal = tested on: A498 renal
A549 NSCLC = tested on: A549 NSCLC
ACHN renal = tested on: ACHN renal
CAKI-1 renal = tested on: CAKI-1 renal
COLO 205 colon = tested on: COLO 205 colon
DLD-1 colon = tested on: DLD-1 colon
DMS 114 small cell lung = tested on: DMS 114 small cell lung
DMS 273 small cell lung = tested on: DMS 273 small cell lung
EKVX NSCLC = tested on: EKVX NSCLC
HCC-2998 colon = tested on: HCC-2998 colon
HCT-116 colon = tested on: HCT-116 colon
HL-60(TB) leukemia = tested on: HL-60(TB) leukemia
HOP-18 NSCLC = tested on: HOP-18 NSCLC
HOP-62 NSCLC = tested on: HOP-62 NSCLC
HOP-92 NSCLC = tested on: HOP-92 NSCLC
HT29 colon = tested on: HT29 colon
IGROV1 ovarian = tested on: IGROV1 ovarian
K-562 leukemia = tested on: K-562 leukemia
KM12 colon = tested on: KM12 colon
KM20L2 colon = tested on: KM20L2 colon
LOX IMVI melanoma = tested on: LOX IMVI melanoma
LXFL 529 NSCLC = tested on: LXFL 529 NSCLC
M14 melanoma = tested on: M14 melanoma
M19-MEL melanoma = tested on: M19-MEL melanoma
MALME-3M melanoma = tested on: MALME-3M melanoma
MOLT-4 leukemia = tested on: MOLT-4 leukemia
NCI-H226 lung = tested on: NCI-H226 lung
NCI-H23 lung = tested on: NCI-H23 lung
NCI-H460 lung = tested on: NCI-H460 lung
NCI-H522 lung = tested on: NCI-H522 lung
OVCAR-3 ovarian = tested on: OVCAR-3 ovarian
OVCAR-4 ovarian = tested on: OVCAR-4 ovarian
OVCAR-5 ovarian = tested on: OVCAR-5 ovarian
OVCAR-8 ovarian = tested on: OVCAR-8 ovarian
RPMI-8226 leukemia = tested on: RPMI-8226 leukemia
RXF 393 renal = tested on: RXF 393 renal
RXF-631 renal = tested on: RXF-631 renal
SF-268 CNS = tested on: SF-268 CNS
SF-295 CNS = tested on: SF-295 CNS
SF-539 CNS = tested on: SF-539 CNS
SK-MEL-28 melanoma = tested on: SK-MEL-28 melanoma
SK-MEL-5 melanoma = tested on: SK-MEL-5 melanoma
SK-OV-3 ovarian = tested on: SK-OV-3 ovarian
SN12C renal = tested on: SN12C renal
SNB-19 CNS = tested on: SNB-19 CNS
SNB-78 CNS = tested on: SNB-78 CNS
SW-620 colon = tested on: SW-620 colon
TK-10 renal = tested on: TK-10 renal
U251 CNS = tested on: U251 CNS
UACC-257 melanoma = tested on: UACC-257 melanoma
UACC-62 melanoma = tested on: UACC-62 melanoma
UO-31 renal = tested on: UO-31 renal
CCRF-CEM leukemia = tested on: CCRF-CEM leukemia
HCT-15 colon = tested on: HCT-15 colon
SK-MEL-2 melanoma = tested on: SK-MEL-2 melanoma
SNB-75 CNS = tested on: SNB-75 CNS

SMILES: Cc1cc(C)nc(NS(=O)(=O)c2ccc(NC(=O)c3ccc(Cl)c4c(Nc5ccc(S(=O)(=O)Nc6cc(C)on6)cc5)c5ccccc5nc34)cc2)n1
- TGI (786-0 renal): 30.9 µM
- TGI (A498 renal): 29.1 µM
- TGI (A549 NSCLC): 40.7 µM
- TGI (ACHN renal): 36.1 µM
- TGI (CAKI-1 renal): 29.5 µM
- TGI (COLO 205 colon): 32.3 µM
- TGI (DLD-1 colon): 31.6 µM
- TGI (DMS 114 small cell lung): 32.6 µM
- TGI (DMS 273 small cell lung): 31.9 µM
- TGI (EKVX NSCLC): 33.9 µM
- TGI (HCC-2998 colon): 33 µM
- TGI (HCT-116 colon): 39.9 µM
- TGI (HL-60(TB) leukemia): 27.2 µM
- TGI (HOP-18 NSCLC): 29.2 µM
- TGI (HOP-62 NSCLC): 30.6 µM
- TGI (HOP-92 NSCLC): 30.3 µM
- TGI (HT29 colon): 35.8 µM
- TGI (IGROV1 ovarian): 37.3 µM
- TGI (K-562 leukemia): 68.5 µM
- TGI (KM12 colon): 33.7 µM
- TGI (KM20L2 colon): 32.6 µM
- TGI (LOX IMVI melanoma): 30 µM
- TGI (LXFL 529 NSCLC): 30.7 µM
- TGI (M14 melanoma): 36.3 µM
- TGI (M19-MEL melanoma): 39.7 µM
- TGI (MALME-3M melanoma): 40 µM
- TGI (MOLT-4 leukemia): 70.9 µM
- TGI (NCI-H226 lung): 32.9 µM
- TGI (NCI-H23 lung): 29.7 µM
- TGI (NCI-H460 lung): 36.3 µM
- TGI (NCI-H522 lung): 31.8 µM
- TGI (OVCAR-3 ovarian): 30.4 µM
- TGI (OVCAR-4 ovarian): 30.7 µM
- TGI (OVCAR-5 ovarian): 35.7 µM
- TGI (OVCAR-8 ovarian): 30.9 µM
- TGI (RPMI-8226 leukemia): 50.3 µM
- TGI (RXF 393 renal): 28 µM
- TGI (RXF-631 renal): 33.7 µM
- TGI (SF-268 CNS): 28.9 µM
- TGI (SF-295 CNS): 32.7 µM
- TGI (SF-539 CNS): 34.6 µM
- TGI (SK-MEL-28 melanoma): 32.9 µM
- TGI (SK-MEL-5 melanoma): 30 µM
- TGI (SK-OV-3 ovarian): 35.9 µM
- TGI (SN12C renal): 36.5 µM
- TGI (SNB-19 CNS): 30.8 µM
- TGI (SNB-78 CNS): 37.2 µM
- TGI (SW-620 colon): 33.1 µM
- TGI (TK-10 renal): 32.3 µM
- TGI (U251 CNS): 28.9 µM
- TGI (UACC-257 melanoma): 32.2 µM
- TGI (UACC-62 melanoma): 32.3 µM
- TGI (UO-31 renal): 31.7 µM

SMILES: CC(=O)/C=C\C1CC2C=CC1C2 (stereo not drawn)
- TGI (786-0 renal): > 100 µM
- TGI (A549 NSCLC): > 100 µM
- TGI (ACHN renal): > 100 µM
- TGI (CCRF-CEM leukemia): 70.3 µM
- TGI (COLO 205 colon): > 100 µM
- TGI (DLD-1 colon): > 100 µM
- TGI (DMS 114 small cell lung): 82.8 µM
- TGI (DMS 273 small cell lung): > 100 µM
- TGI (EKVX NSCLC): > 100 µM
- TGI (HCC-2998 colon): 73.2 µM
- TGI (HCT-116 colon): 54.5 µM
- TGI (HCT-15 colon): > 100 µM
- TGI (HL-60(TB) leukemia): 99.7 µM
- TGI (HOP-18 NSCLC): > 100 µM
- TGI (HOP-62 NSCLC): > 100 µM
- TGI (HOP-92 NSCLC): 79.9 µM
- TGI (IGROV1 ovarian): > 100 µM
- TGI (K-562 leukemia): > 100 µM
- TGI (KM12 colon): > 100 µM
- TGI (KM20L2 colon): > 100 µM
- TGI (LOX IMVI melanoma): 65.4 µM
- TGI (LXFL 529 NSCLC): > 100 µM
- TGI (M14 melanoma): > 100 µM
- TGI (M19-MEL melanoma): > 100 µM
- TGI (MALME-3M melanoma): > 100 µM
- TGI (MOLT-4 leukemia): 66.1 µM
- TGI (NCI-H23 lung): > 100 µM
- TGI (NCI-H460 lung): > 100 µM
- TGI (OVCAR-3 ovarian): > 100 µM
- TGI (OVCAR-4 ovarian): > 100 µM
- TGI (OVCAR-5 ovarian): > 100 µM
- TGI (OVCAR-8 ovarian): > 100 µM
- TGI (RPMI-8226 leukemia): > 100 µM
- TGI (RXF 393 renal): > 100 µM
- TGI (RXF-631 renal): > 100 µM
- TGI (SF-268 CNS): 76.1 µM
- TGI (SF-295 CNS): > 100 µM
- TGI (SF-539 CNS): > 100 µM
- TGI (SK-MEL-2 melanoma): > 100 µM
- TGI (SK-MEL-5 melanoma): > 100 µM
- TGI (SK-OV-3 ovarian): > 100 µM
- TGI (SN12C renal): > 100 µM
- TGI (SNB-19 CNS): > 100 µM
- TGI (SNB-75 CNS): 72.2 µM
- TGI (SNB-78 CNS): 73.5 µM
- TGI (SW-620 colon): > 100 µM
- TGI (TK-10 renal): > 100 µM
- TGI (U251 CNS): > 100 µM
- TGI (UACC-62 melanoma): > 100 µM
- TGI (UO-31 renal): > 100 µM
